Data: ChEMBL document CHEMBL2396546, “Australian marine sponge alkaloids as a new class of glycine-gated chloride channel receptor modulator” (Bioorg Med Chem, 2013)

Assays:
Assay type in all cases: cell-based
[1] = target: T1, Glycine receptor subunit alpha-1 (Homo sapiens) (UniProt P23415); assay: Modulation of recombinant GlyR-alpha1 (unknown origin) expressed in HEK293 cells assessed as inhibition of glycine-induced current at 1 uM by automated planar patch-clamp automated electrophysiology assay
T1 sequence (whole entry): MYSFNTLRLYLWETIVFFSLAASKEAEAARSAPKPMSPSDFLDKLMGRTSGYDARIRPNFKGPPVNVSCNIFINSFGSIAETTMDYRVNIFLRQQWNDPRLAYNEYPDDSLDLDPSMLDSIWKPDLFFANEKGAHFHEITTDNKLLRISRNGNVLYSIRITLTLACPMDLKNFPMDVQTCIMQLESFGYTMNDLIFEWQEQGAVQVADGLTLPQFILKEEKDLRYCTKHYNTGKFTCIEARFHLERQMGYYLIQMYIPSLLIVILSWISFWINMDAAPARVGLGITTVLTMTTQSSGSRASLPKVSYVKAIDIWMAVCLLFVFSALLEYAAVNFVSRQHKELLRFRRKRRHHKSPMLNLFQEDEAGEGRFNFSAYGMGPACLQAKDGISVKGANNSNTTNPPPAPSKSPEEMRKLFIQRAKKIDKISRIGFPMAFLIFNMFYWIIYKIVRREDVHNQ

[2] = target: T2, Glycine receptor subunit alpha-3 (Homo sapiens, UniProt O75311); assay: Modulation of recombinant GlyR-alpha3 (unknown origin) expressed in HEK293 cells assessed as inhibition of glycine-induced current by automated planar patch-clamp automated electrophysiology assay
T2 sequence (O75311 whole entry): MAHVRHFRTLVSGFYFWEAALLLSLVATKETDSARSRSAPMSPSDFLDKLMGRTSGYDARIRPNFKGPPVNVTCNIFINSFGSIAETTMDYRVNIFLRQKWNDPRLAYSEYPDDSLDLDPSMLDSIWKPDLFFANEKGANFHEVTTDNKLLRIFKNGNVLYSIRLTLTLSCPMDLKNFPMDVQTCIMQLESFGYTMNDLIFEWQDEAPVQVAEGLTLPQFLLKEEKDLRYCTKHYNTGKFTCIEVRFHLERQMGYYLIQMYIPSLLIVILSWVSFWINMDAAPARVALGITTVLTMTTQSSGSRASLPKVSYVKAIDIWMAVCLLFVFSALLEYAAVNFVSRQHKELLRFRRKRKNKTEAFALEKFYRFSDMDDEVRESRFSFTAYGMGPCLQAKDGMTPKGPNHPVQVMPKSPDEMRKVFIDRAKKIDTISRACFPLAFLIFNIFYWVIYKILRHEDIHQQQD

[3] = target: T3, Glycine receptor subunit alpha-1 (Homo sapiens, UniProt P23415); assay: Modulation of recombinant GlyR-alpha1 (unknown origin) expressed in HEK293 cells assessed as inhibition of glycine-induced current by automated planar patch-clamp automated electrophysiology assay
T3 sequence (P23415 whole entry): T1 sequence (whole entry)

Row | inhibition [1] [%] | IC50 [2] [µM] | IC50 [3] [µM] | SMILES
1 | 126 | > 300 | 25.9 | CN1C(=N)N(C)[C@@]2(C1=O)c1[nH]c3ccccc3c1C[C@@]1(C(=O)N(C)C(=N)N1C)[C@@H]2c1c[nH]c2ccccc12
2 |  | 67 | > 200 | CN1C(=O)/C(=C\c2c[nH]c3ccccc23)N(C)C1=O
3 |  | 33.9 | 8.8 | CN1C(=O)NC(=O)/C1=C\c1c[nH]c2ccccc12
